# Measurements: patent US20230390267A1, “TREATMENT REGIMENS FOR EARLY IDIOPATHIC PARKINSON'S DISEASE” (BIAL - PORTELA & CA., S.A., priority 2020, published 2023)
# Read-outs that look alike come from different tables or passages of the source.
# How the values were obtained:
# [1] = tested on: patients with early idiopathic Parkinson's disease treated with levodopa/DDCI, with no signs of motor complications; assay: EPSILON Phase III double-blind placebo-controlled study, efficacy; format: in vivo, human
# From the text: The primary endpoint was the change from baseline to end of double-blind period in MDS-UPDRS Part III (motor) scores, and secondary outcomes assessed non-motor symptoms, quality of life and global clinical impressions of change.
# Subjects were between 30 and 80 years of age, inclusive, diagnosed with early idiopathic Parkinson's disease according to the United Kingdom Parkinson's Disease Society Brain Bank Clinical Diagnostic Criteria within the previous 5 years, with disease severity stage 1-2.5 (according to modified Hoehn & Yahr staging) and a MDS-UPDRS Part III score>20. Alternatively, the subjects were diagnosed with early idiopathic Parkinson's disease according to the […] within the previous 5 years, with disease severity stage 1-2.5 (according to modified Hoehn & Yahr staging) and a MDS-UPDRS Part III score>20.
# 322 subjects completed the double-blind phase (FIG. 10).
# Study treatment was administered in combination with the subject's existing treatment of levodopa/DDCI.
# The primary efficacy parameter, change from baseline (Visit 2) in MDS-UPDRS Part III total score at the end of the double-blind period (Visit 9), was analyzed using a Mixed Model Repeated Measures (MMRM) approach with fixed effects for baseline, center/country, (randomized) treatment, visit, treatment by visit interaction and baseline by visit interaction, and subject as a random effect. Difference between treatment groups (opicapone versus placebo) was estimated from the model.
# A similar MMRM analysis used for the primary endpoint was used for relevant secondary efficacy endpoints in the double-blind period. The secondary endpoints included: • Change from baseline (Visit 2) to post-baseline visits during the double-blind trial in: • MDS-UPDRS scores: Parts I, II, III and IV, and Part II+III total • Modified Hoehn & Yahr staging total score during maximum ‘ON’ response • Schwab and England scale score • Parkinson's Disease Sleep Scale 2 (PDSS-2) total score • MDS-Non-motor Symptom Scale (MDS-NMSS) total and subdomain scores • Parkinson's Disease Questionnaire (PDQ-39) total and subdomain scores • 9-item Wearing-off questionnaire (WOQ9) total and sub-section (motor and non-motor) scores • Clinical Global Impression of Improvement (CGI-I) • Patient's Global Impression of Improvement (PGI-I)
# The proportion of subjects with an improvement from baseline in CGI-I (preferably relative to before the beginning of treatment) and PGI-I (preferably relative to their admission to the study) scores at the end of the double blind period (Visit 9) endpoint was analysed using logistic regression, with (randomized) treatment included in the model.
# [2] = tested on: PD patients with motor fluctuations; settings: cited from earlier work; for mean treatment effect versus placebo on absolute daily OFF-time: double-blind
# [3] = tested on: PD patients with motor fluctuations (Japanese population); settings: p<0.05, cited from earlier work
# [4] = tested on: patients who switched from entacapone to opicapone or had lack of efficacy or adverse events with entacapone; settings: patients who continued with opicapone beyond 6 months; cited from earlier work
# [5] = tested on: PD patients with motor fluctuations; settings: cited from earlier work
# [6] = tested on: PD patients with motor fluctuations; settings: cited from earlier work; remark: listed apart in the source
# erythrocyte COMT = settings: cynomolgus monkey; cited from earlier work
# [7] = oral opicapone with levodopa; evident 24 hours after drug administration; cited from earlier work
# S-COMT = settings: peripheral tissues; cited from earlier work
# [8] = tested on: MPTP treated parkinsonian primates; settings: in vivo; cited from earlier work
# COMT activity in brain = settings: cited from earlier work
structure (smiles),measurement,setting,value
"Cc1c(Cl)c(C)[n+]([O-])c(Cl)c1-c1noc(-c2cc(O)c(O)c([N+](=O)[O-])c2)n1 [opicapone, 2,5-dichloro-3-[5-(3,4-dihydroxy-5-nitrophenyl)-1,2,4-oxadiazol-3-yl]-4,6-dimethylpyridine 1-oxide]","MDS-UPDRS Part III total score, change from baseline, LS mean, estimates from MMRM","[1]; OPC 50 mg once daily + L-DOPA/DDCI, Week 24",−6.5
same,"MDS-UPDRS Part III total score, Change from Baseline, Mean","[1]; OPC 50 mg once daily + L-DOPA/DDCI, baseline to 24 weeks",−5.8
same,"MDS-UPDRS Part III total score, Week 24, Mean","[1]; OPC 50 mg once daily + L-DOPA/DDCI, double-blind, Week 24, N = 176",27.2
same,"MDS-UPDRS Part III total score, LS Mean Diff. (SE) vs placebo, MMRM","[1]; OPC 50 mg vs placebo, Week 2",−0.8 (0.8)
same,"MDS-UPDRS Part II + III total score, LS Mean Diff. (SE) vs placebo","[1]; OPC 50 mg vs placebo, Week 4",−1.4 (0.9)
same,"MDS-UPDRS Part II total score, LS Mean Diff. (SE) vs placebo","[1]; OPC 50 mg vs placebo, Week 4",−0.2 (0.3)
same,"MDS-UPDRS Part III total score, LS Mean Diff. (SE) vs placebo, MMRM","[1]; OPC 50 mg vs placebo, Week 4",−1.2 (0.8)
same,"MDS-UPDRS Part II + III total score, LS Mean Diff. (SE) vs placebo","[1]; OPC 50 mg vs placebo, Week 12",−1.7 (1.06)
same,"MDS-UPDRS Part II total score, LS Mean Diff. (SE) vs placebo","[1]; OPC 50 mg vs placebo, Week 12",−0.2 (0.4)
same,"MDS-UPDRS Part III total score, LS Mean Diff. (SE) vs placebo, MMRM","[1]; OPC 50 mg vs placebo, Week 12",−1.7 (0.9)
same,"MDS-UPDRS Part I total score, LS Mean Diff. (SE) vs placebo","[1]; OPC 50 mg vs placebo, Week 24",−0.2 (0.4)
same,"MDS-UPDRS Part II + III total score, LS Mean Diff. (SE) vs placebo","[1]; OPC 50 mg vs placebo, Week 24",−2.8 (1.3)
same,"MDS-UPDRS Part II total score, LS Mean Diff. (SE) vs placebo","[1]; OPC 50 mg vs placebo, Week 24",−0.7 (0.4)
same,"MDS-UPDRS Part III total score, LS Mean Diff. (SE) vs placebo, MMRM","[1]; OPC 50 mg vs placebo, Week 24",−2.2 (0.9)
same,"MDS-UPDRS Part IV total score, LS Mean Diff. (SE) vs placebo","[1]; OPC 50 mg vs placebo, Week 24",−0.11 (0.1)
same,"PDQ-39 total score, LS Mean Diff. (SE) vs placebo","[1]; OPC 50 mg vs placebo, Week 24",−0.26 (0.77)
same,"PDSS-2 total score, LS Mean Diff. (SE) vs placebo","[1]; OPC 50 mg vs placebo, Week 24",−1.5 (0.7)
same,"MDS-UPDRS Part III total score, Change to Week 2, LS mean","[1]; OPC 50 mg, Week 2",−4.6
same,"MDS-UPDRS Part II + III total score, Change to Week 4, LS mean","[1]; OPC 50 mg, Week 4",−7.3
same,"MDS-UPDRS Part II total score, Change to Week 4, LS mean","[1]; OPC 50 mg, Week 4",−0.8
same,"MDS-UPDRS Part III total score, Change to Week 4, LS mean","[1]; OPC 50 mg, Week 4",−6.0
same,"MDS-UPDRS Part II + III total score, Change to Week 12, LS mean","[1]; OPC 50 mg, Week 12",−7.4
same,"MDS-UPDRS Part II total score, Change to Week 12, LS mean","[1]; OPC 50 mg, Week 12",−0.7
same,"MDS-UPDRS Part III total score, Change to Week 12, LS mean","[1]; OPC 50 mg, Week 12",−6.2
same,"MDS-UPDRS Part I total score, change from baseline, LS mean, MMRM","[1]; OPC 50 mg, Week 24",0.4
same,"MDS-UPDRS Part II + III total score, change from baseline, LS mean, MMRM","[1]; OPC 50 mg, Week 24",−7.4
same,"MDS-UPDRS Part II total score, change from baseline, LS mean, MMRM","[1]; OPC 50 mg, Week 24",−0.4
same,"MDS-UPDRS Part IV total score, change from baseline, LS mean (SE), MMRM","[1]; OPC 50 mg, Week 24",0.3 (0.1)
same,"NMSS, change from baseline, LS mean, MMRM","[1]; OPC 50 mg, Week 24",−1.4
same,"PDQ-39 total score, change from baseline, LS mean, MMRM","[1]; OPC 50 mg, Week 24",0.42
same,"PDSS-2 total score, change from baseline, LS mean, MMRM","[1]; OPC 50 mg, Week 24",0.0
same,"MDS-UPDRS Part I total score, Week 24, Mean","[1]; OPC 50 mg, Week 24, N = 176",6.7
same,"MDS-UPDRS Part II + III total score, Week 24, Mean","[1]; OPC 50 mg, Week 24, N = 176",35.7
same,"MDS-UPDRS Part II total score, Week 24, Mean","[1]; OPC 50 mg, Week 24, N = 176",8.5
same,"MDS-UPDRS Part IV total score, Week 24, Mean (SD)","[1]; OPC 50 mg, Week 24, N = 176",0.2 (0.8)
same,"NMSS, Week 24, Mean","[1]; OPC 50 mg, Week 24, N = 176",15.9
same,"PDQ-39 total score, Week 24, Mean","[1]; OPC 50 mg, Week 24, N = 176",15.4
same,"PDSS-2 total score, Week 24, Mean","[1]; OPC 50 mg, Week 24, N = 176",11.6
same,"MDS-UPDRS Part I total score, Change from Baseline, Mean","[1]; OPC 50 mg, baseline to week 24",0.3
same,"MDS-UPDRS Part II + III total score, Change from Baseline, Mean","[1]; OPC 50 mg, baseline to week 24",−6.2
same,"MDS-UPDRS Part II total score, Change from Baseline, Mean","[1]; OPC 50 mg, baseline to week 24",−0.4
same,"MDS-UPDRS Part IV total score, Change from Baseline, Mean (SD)","[1]; OPC 50 mg, baseline to week 24",0.2 (0.8)
same,"NMSS, Change from Baseline, Mean","[1]; OPC 50 mg, baseline to week 24",−3.0
same,"PDQ-39 total score, Change from Baseline, Mean","[1]; OPC 50 mg, baseline to week 24",−0.29
same,"PDSS-2 total score, Change from Baseline, Mean","[1]; OPC 50 mg, baseline to week 24",−0.4
same,symptomatic reduction in MDS-UPDRS Part III total score compared to placebo,"[1]; baseline to end of double-blind period, p=0.010",2.2 points
same,symptomatic reduction in MDS-UPDRS Part II+III total score compared to placebo,"[1]; baseline to end of double-blind period, p=0.036",2.8 points
same,"magnitude of the changes in MDS-UPDRS Part I, MDS-UPDRS Part IV or PDQ-39 total scores","[1]; both groups (opicapone and placebo), double-blind period",less than 0.4 points
same,NMSS Domain 7 (urinary) subdomain score vs placebo,[1]; especially at Week 12 and Week 24 (p<0.05),Significant improvements
same,proportion of patients who reported motor complications,"[1]; opicapone 50 mg, end of 24-week double-blind period",5.5%
same,proportion of patients reporting an improvement in their clinical condition (PGI-I score),"[1]; opicapone 50 mg, end of double-blind period, p=0.026 vs placebo",57.9%
same,proportion of patients with an improvement in clinical condition assessed by a clinician (CGI-I score),"[1]; opicapone 50 mg, end of double-blind period, p=0.493 vs placebo",50.3%
same,WOQ-9: proportion of subjects whose dexterity improved post-study medication,[1]; opicapone treated group,56.6%
same,WOQ-9: proportion of subjects whose muscle cramping improved post-study medication,[1]; opicapone treated group,28.3%
same,WOQ-9: proportion of subjects whose slowness of movement improved post-study medication,[1]; opicapone treated group,66.2%
same,WOQ-9: proportion of subjects whose stiffness improved post-study medication,[1]; opicapone treated group,56.9%
same,WOQ-9: proportion of subjects whose tremors improved post-study medication,[1]; opicapone treated group,65.5%
same,OFF-time change from baseline at the end of the open-label phase,[2]; group that switched from placebo to opicapone,114.7 min
same,mean treatment effect versus placebo on absolute daily OFF-time,"[2]; opicapone 25 mg, p=0.0106",-35.1 min
same,OFF-time change from baseline at the end of the open-label phase,[2]; opicapone 50 mg throughout double-blind and open-label treatment,-141.1 min
same,mean treatment effect versus placebo on absolute daily OFF-time,"[2]; opicapone 50 mg, p<0.0001",-58.1 min
same,placebo-adjusted reduction of OFF time,"[2]; opicapone 50 mg, onset of motor fluctuations within the previous 2 years, p=0.0003",-68.5 min
same,placebo-adjusted mean reduction of OFF time,"[2]; opicapone 50 mg, patients only taking levodopa at baseline, p=0.02",-65.6 min
same,placebo-adjusted reduction of OFF time,"[2]; opicapone 50 mg, patients taking less than 600 mg of levodopa per day, p=0.0005",-75.5 min
same,placebo adjusted reduction in OFF time,[3]; opicapone 25 mg dose group,-0.74 h
same,placebo adjusted reduction in OFF time,[3]; opicapone 50 mg dose,-0.62 h
same,mean reduction in OFF time measured by interview,[4],−2 hours per day
same,patients who reported they were improved,[5]; 3 months,76.9%
same,patients judged as having worsened,"[5]; UK patients (n=95), 6 months",6.4%
same,patients judged as improved since commencing treatment,"[5]; UK patients (n=95), 6 months",85.3%
same,patients judged as showing 'no change',"[5]; UK patients (n=95), 6 months",8.4%
same,patients much improved,"[5]; UK patients (n=95), 6 months",49.4%
same,patients very much improved,"[5]; UK patients (n=95), 6 months",8.4%
same,patients reported as much or very much improved (CGI-C),"[5]; opicapone 50 mg, 3 months",43%
same,patients showing clinical improvement as judged by the investigators (CGI-C),"[5]; opicapone 50 mg, 3 months",71.3%
same,improvement in UPDRS ADL score,[5]; opicapone adjunct therapy,3.0 points
same,improvement in UPDRS motor score,[5]; opicapone adjunct therapy,4.6 points
same,mean±SD improvement in NMSS sleep/fatigue score versus baseline,[5]; p<0.0001,−1.3+6.3 points
same,mean±SD improvement in NMSS total score versus baseline,[5]; p<0.0001,−6.8±19.7 points
same,mean improvement in NMSS total score,[6]; 1-year open-label endpoint,−4.2
same,change in NMSS sleep/fatigue score,"[6]; opicapone 50 mg dose, vs −0.5 with placebo",−1.2 points
same,reduction in erythrocyte COMT activity,erythrocyte COMT,≤ 85%
same,brain levodopa levels,[7],sustained increase in brain levodopa levels
same,binding affinity to S-COMT,S-COMT,sub-picomolar
same,motor function in MPTP treated parkinsonian primates,[8],improvement in motor function
same,effect on COMT activity in brain,COMT activity in brain,does not appear to have any effect
